Data as given in US20120316346A1, “SELENALZOLE DERIVATIVE HAVING LIGAND WHICH ACTIVATES PEROXISOME PROLIFERATOR ACTIVATED RECEPTOR (PPAR), PREPARING METHOD THEREOF AND USAGE OF THE CHEMICAL COMPOUNDS” (SNU R & DB FOUNDATION, priority 2010, published 2012).

Key:
mouse = assay: Muscle endurance test (treadmill) after administration during pregnancy, lactation or both; format: in vivo; conditions: for Body weight or growth rate of the fetus, treated versus control group / Type I muscle fiber (ATPase staining and immunostaining): 10 mg/kg/day oral during pregnancy, lactation or both; for Increase compared to control, Distance / Increase compared to control, Time: treadmill, 10 mg/kg/day oral
Description: Animal experiment was carried out in order to test muscle endurance strengthening and muscle function improving effect of the compound according to the present invention. Since muscle formation occurs mostly in the developmental stage, Compound S185 or S186 (10 mg/kg/day) was orally administered to a mouse during pregnancy, lactation or both. No difference in body weight or growth rate of the fetus was observed between the control group and the treated group. When the muscle was observed after removing the skin, the muscle of the treated group was redder than the control group. […] In order to confirm the effect of the change in the muscle fiber on improvement of muscle endurance and muscle function, test was performed using a treadmill.

hPPARδ = molecular target: T1, hPPARδ (Homo sapiens, UniProt Q03181); assay: Transfection assay (luciferase reporter, full-length PPAR plasmid) in CV-1 cells, PPARδ; format: cell-based; conditions: 24 hours
T1 sequence (Q03181 1-441): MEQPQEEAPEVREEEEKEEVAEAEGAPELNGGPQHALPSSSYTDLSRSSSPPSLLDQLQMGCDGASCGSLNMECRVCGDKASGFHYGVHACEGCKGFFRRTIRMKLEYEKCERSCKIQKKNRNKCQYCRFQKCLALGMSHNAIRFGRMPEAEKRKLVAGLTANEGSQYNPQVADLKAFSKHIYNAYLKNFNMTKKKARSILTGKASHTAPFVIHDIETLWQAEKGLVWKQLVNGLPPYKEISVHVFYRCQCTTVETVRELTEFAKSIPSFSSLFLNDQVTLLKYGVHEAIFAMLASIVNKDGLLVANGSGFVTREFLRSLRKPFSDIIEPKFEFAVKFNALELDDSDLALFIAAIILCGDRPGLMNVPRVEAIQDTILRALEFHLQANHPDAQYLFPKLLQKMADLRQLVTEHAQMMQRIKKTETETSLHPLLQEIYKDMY
Description: (§1) PPARδ activation effect of the compound represented by Chemical Formula I according to the present invention was identified by transfection assay. Further, selectivity test for other PPAR subtypes PPARα and PPARγ, toxicity test by MTT assay, and in vivo activity test through animal experiment were carried out. CV-1 cells were used for transfection assay. The cells were cultured in a 5% CO2 incubator at 37° C., on a 96-well plate using DMEM medium containing 10% FBS, DBS (delipidated) and 1% penicillin/streptomycin. Experiment was performed in four stages of cell inoculation, transfection, treatment with the compound of the present invention, and confirmation of result. The CV-1 cells inoculated onto a 96-well plate at 5,000 cells/well, and transfected 24 hours later. Transfection assay was performed using full-length PPAR plasmid DNA, reporter DNA having luciferase activity and thus capable of identifying PPAR activity, and β-galactosidase DNA which gives information about transfection efficiency. […] After culturing for 24 hours in an incubator, the cells were lysed using lysis buffer, and luciferase and β-galactosidase activity was measured using a luminometer and a microplate reader. The measured luciferase data were corrected using the β-galactosidase data, and were plotted to calculate the EC50 value.

hPPARγ = molecular target: T2, hPPARγ (Homo sapiens, UniProt P37231); assay: Transfection assay (luciferase reporter, full-length PPAR plasmid) in CV-1 cells, PPARγ selectivity; format: cell-based; conditions: 24 hours
T2 sequence (P37231 1-505): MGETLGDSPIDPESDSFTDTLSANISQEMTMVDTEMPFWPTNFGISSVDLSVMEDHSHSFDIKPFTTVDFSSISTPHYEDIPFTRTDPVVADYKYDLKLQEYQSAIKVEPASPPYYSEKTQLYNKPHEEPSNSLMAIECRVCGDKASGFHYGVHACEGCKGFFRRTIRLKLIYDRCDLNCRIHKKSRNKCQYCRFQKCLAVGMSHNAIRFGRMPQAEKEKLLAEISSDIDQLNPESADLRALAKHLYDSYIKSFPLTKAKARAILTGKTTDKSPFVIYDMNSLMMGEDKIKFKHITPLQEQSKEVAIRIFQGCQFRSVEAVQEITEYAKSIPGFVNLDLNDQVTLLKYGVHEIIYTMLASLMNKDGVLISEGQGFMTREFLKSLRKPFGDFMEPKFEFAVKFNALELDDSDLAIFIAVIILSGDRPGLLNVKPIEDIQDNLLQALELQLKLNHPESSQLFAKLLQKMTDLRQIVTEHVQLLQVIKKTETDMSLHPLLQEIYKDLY
Description: as §1

[1] = Obesity inhibiting effect, high-fat feed mice; format: in vivo, mouse; conditions: C57BL/6 mice, 35% fat feed 60 days, 10 mg/kg/day oral
Description: In order to test in vivo effect of the compound according to the present invention, experiment was carried out using mouse. 8-week-old C57BL/6 (SLC Co.) mice were used and feed containing 35% fat was used to induce obesity. While giving the high-fat feed for 60days, vehicle, Compound S185 or Compound S186 was orally administered (10 mg/kg/day).

Ldlr−/− mice = assay: Atherosclerosis inhibiting effect, Ldlr−/− mice (Sudan IV arterial plaque staining); format: in vivo; conditions: Ldlr−/− mouse, high-fat high-cholesterol feed, 2 mg/kg/day oral, 28 days
Description: (§2) In order to test atherosclerosis inhibiting effect of the compound according to the present invention, in vivo experiment was carried out using atherosclerosis animal model ApoE−/−, Ldlr−/−mice. While giving high-fat, high-cholesterol feed (20% fat, 1.25% cholesterol; AIN-93G diet), the compound of the present invention (Compound S185) was orally administered at 2 mg/kg/day. 28 days later, arterial plaque was stained using Sudan IV, and the atherosclerosis inhibiting effect was compared with the control group.

hPPARα = molecular target: T3, hPPARα (Homo sapiens, UniProt Q07869); assay: Transfection assay (luciferase reporter, full-length PPAR plasmid) in CV-1 cells, PPARα selectivity; format: cell-based; conditions: 24 hours
T3 sequence (Q07869 1-468): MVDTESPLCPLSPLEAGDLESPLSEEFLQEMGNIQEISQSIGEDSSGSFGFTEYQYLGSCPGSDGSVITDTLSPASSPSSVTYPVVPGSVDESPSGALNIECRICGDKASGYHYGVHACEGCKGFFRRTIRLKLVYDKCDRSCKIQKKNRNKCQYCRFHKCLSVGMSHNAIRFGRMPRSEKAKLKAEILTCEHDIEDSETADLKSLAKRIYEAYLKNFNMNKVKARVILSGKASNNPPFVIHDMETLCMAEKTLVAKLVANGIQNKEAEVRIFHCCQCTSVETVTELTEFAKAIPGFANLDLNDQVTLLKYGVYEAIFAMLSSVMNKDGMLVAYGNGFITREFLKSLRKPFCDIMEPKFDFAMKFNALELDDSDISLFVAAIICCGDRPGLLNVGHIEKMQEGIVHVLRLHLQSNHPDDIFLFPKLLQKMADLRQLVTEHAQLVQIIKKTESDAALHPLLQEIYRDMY
Description: as §1

C57BL/6 mouse [2] = assay: Fatty liver treating effect, high-fat feed mice (H&E liver staining); format: in vivo; conditions: 35% fat feed 78 days, 10 mg/kg/day oral
Description: Animal (8-week-old C57BL/6 mouse) experiment was carried out in order to test fatty liver treating effect of the compound according to the present invention. Feed containing 35% fat was used to induce fatty liver. While giving the high-fat feed for 78 days, Compound S185 was orally administered (10 mg/kg/day). At the end of the experiment, liver tissue was harvested and fixed in paraformaldehyde solution and then stained with hematoxylin and eosin.

ApoE−/− mice = assay: Atherosclerosis inhibiting effect, ApoE−/− mice (Sudan IV arterial plaque staining); format: in vivo; conditions: ApoE−/− mouse, high-fat high-cholesterol feed, 2 mg/kg/day oral, 28 days
Description: as §2

C57BL/6 mouse [3] = assay: Memory improving effect, Morris water maze test in LPS brain disease model; format: in vivo
Description: Animal (8-week-old C57BL/6 mouse) experiment was carried out in order to test the effect of the compound according to the present invention of treating dementia and Parkinson's disease through improvement of memory. Before performing experiment, an animal model of brain disease was established by injecting LPS into the brain by stereotaxy. Test groups were divided depending on the administration of the test compound and exercise. Exercise condition was 5 minutes at 2 m/min, 5 minutes at 5 m/min, 5 minutes at 8 m/min, followed by 5 minutes at 20 m/min. Morris water maze test was performed at the end of the test. It was confirmed that the compound according to the present invention and exercise are effective in treating dementia and Parkinson's disease through improvement of memory.

C57BL/6 mouse [4] = assay: Muscle endurance and muscle function in adult exercising mice (treadmill); format: in vivo; conditions: 10-week-old C57BL/6 mouse, 10 mg/kg oral, treadmill exercise 30 days
Description: Further, improvement of muscle endurance and muscle function was confirmed when the compound according to the present invention was administered to an adult. 10-week-old C57BL/6 mouse was let to exercise while orally administering Compound S185 or S186 (10 mg/kg). The mouse was let to exercise on a treadmill for 30 days, once a day for 30 minutes. Exercise condition was 5 minutes at 2 m/min, 5 minutes at 5 m/min, 5 minutes at 8 m/min, followed by 5 minutes at 20 m/min. At the end of the test, muscle endurance strengthening and muscle function improving effect was tested using a treadmill.

[5] = Diabetes improving effect, glucose tolerance test (GTT); format: in vivo, mouse; conditions: for Fasting glucose level as compared to the control group: 10 mg/kg/day oral for 57 days; for Diabetes improving effect: GTT, overall conclusion
Description: In order to test diabetes improving effect of the compound according to the present invention, glucose tolerance test (GTT) was carried out. To a mouse to which the test compound had been orally administered for 57 days, glucose (1.5 g/kg) was abdominally administered and change of blood glucose level was monitored.

[6] = administered during Pregnancy + lactation

Compound	Body weight or growth rate of the fetus, treated versus control group (mouse)	Type I muscle fiber (ATPase staining and immunostaining) (mouse)	Increase compared to control, Distance (mouse; administered during Lactation) [times]	Increase compared to control, Time (mouse; administered during Lactation) [times]	Increase compared to control, Distance (mouse; [6]) [times]	Increase compared to control, Time (mouse; [6]) [times]	Increase compared to control, Distance (mouse; administered during Pregnancy) [times]	Increase compared to control, Time (mouse; administered during Pregnancy) [times]	EC50 (hPPARδ) [nM]	EC50 hPPARγ (hPPARγ)	Body weight increase as compared to the vehicle group [1] [%]	Atherosclerosis inhibiting effect improved (Ldlr−/− mice) [%]	EC50 hPPARα (hPPARα)	Fatty liver treating effect (H&E stained liver tissue, FIG. 1) (C57BL/6 mouse [2])	Atherosclerosis inhibiting effect improved as compared to the control group (ApoE−/− mice) [%]	Water maze test result (C57BL/6 mouse [3]; Exercise (o)) [s]	Water maze test result (C57BL/6 mouse [3]; Exercise (x)) [s]	Exercise time and distance as compared to the control group (C57BL/6 mouse [4])	Fasting glucose level as compared to the control group [5]	Diabetes improving effect [5]
Cc1cc(SCc2[se]c(-c3ccc(C(F)(F)F)cc3)nc2C)ccc1OCC(=O)O [Compound S185]	No difference	increased type I muscle fiber	2.6	2.1	3.9	3.7	2.7	2.3	0.66	ia	39	36	ia	effective in preventing fatty liver	60	14	20	improvement both in exercise time and distance	lower fasting glucose level	effective in improving diabetes
Cc1cc([Se]Cc2[se]c(-c3ccc(C(F)(F)F)cc3)nc2C)ccc1OCC(=O)O [Compound S186]	No difference	increased type I muscle fiber	2.0	1.8	3.3	3.1	2.1	2.1	4.27	ia	42	–	ia	–	–	16	27	improvement both in exercise time and distance	lower fasting glucose level	effective in improving diabetes
